Source: ChEMBL document CHEMBL1201862, “PubChem BioAssay data set” (2004)
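Cultured in 96-well plates, cells were exposed to test compound for 48 hours across five concentrations. GI50 is the concentration that inhibits growth by half.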 The source made the active and inactive calls. Rule as the data show it: active = GI50 up to about 1.1 µM and inactive = higher.

What was measured:
Test in all cases: NCI anticancer screen, dose series, 48 h
786-0 = tested on: 786-0
UO-31 = tested on: UO-31
OVCAR-3 = tested on: OVCAR-3
NCI-H460 = tested on: NCI-H460
SW-620 = tested on: SW-620
TK-10 = tested on: TK-10
U-251 = tested on: U-251
CCRF-CEM = tested on: CCRF-CEM
RPMI-8226 = tested on: RPMI-8226
HOP-92 = tested on: HOP-92
HCC 2998 = tested on: HCC 2998
UACC-62 = tested on: UACC-62
ACHN = tested on: ACHN
SR = tested on: SR
SK-MEL-5 = tested on: SK-MEL-5
MCF7 = tested on: MCF7
A498 = tested on: A498
SN12C = tested on: SN12C
OVCAR-4 = tested on: OVCAR-4
SF-295 = tested on: SF-295

Row | Structure (SMILES) | GI50 (786-0) | GI50 (UO-31) | GI50 (OVCAR-3) | GI50 (NCI-H460) | GI50 (SW-620) | GI50 (TK-10) | GI50 (U-251) | GI50 (CCRF-CEM) | GI50 (RPMI-8226) | GI50 (HOP-92) | GI50 (HCC 2998) | GI50 (UACC-62) | GI50 (ACHN) | GI50 (SR) | GI50 (SK-MEL-5) | GI50 (MCF7) | GI50 (A498) | GI50 (SN12C) | GI50 (OVCAR-4) | GI50 (SF-295)
1 | O=[N+]([O-])/C(C(Cl)=C(Cl)Cl)=C(/Cl)Sc1ccccc1 | 1.31 µM (inactive) | 1.42 µM (inactive) | 2.05 µM (inactive) | 17.1 µM (inactive) | 0.307 µM (active) | 2.67 µM (inactive) | 2.25 µM (inactive) | 0.185 µM (active) | 0.306 µM (active) | 2.05 µM (inactive) | 2.7 µM (inactive) | 1.8 µM (inactive) | 2.08 µM (inactive) | 0.378 µM (active) | 2.12 µM (inactive) | 1.43 µM (inactive) | 2 µM (inactive) | 1.81 µM (inactive) | 1.62 µM (inactive) | 20 µM (inactive)
2 | COc1cc(C2SCC(=O)N2c2ccc(NC(C)=O)cc2)cc(OC)c1OC (stereo not given) | > 100 µM (inactive) | > 100 µM (inactive) | > 100 µM (inactive) | > 100 µM (inactive) | > 100 µM (inactive) | > 100 µM (inactive) | > 100 µM (inactive) | 25.9 µM (inactive) | > 100 µM (inactive) | 48.3 µM (inactive) | > 100 µM (inactive) | 25.5 µM (inactive) | > 100 µM (inactive) | 31.2 µM (inactive) | > 100 µM (inactive) | 51.3 µM (inactive) | > 100 µM (inactive) | 81.5 µM (inactive) | > 100 µM (inactive) | > 100 µM (inactive)
3 | CC(=O)NC1C(OCc2ccccc2)OC(CO)C(O)C1OC(C)C(=O)NC(C(=O)NC(CCC(=O)Nc1ccc2c(c1)CN1C(=O)c3ccccc3C1=N2)C(N)=O)C(C)C (stereo not given) | > 100 µM (inactive) | > 100 µM (inactive) | > 100 µM (inactive) | > 100 µM (inactive) | > 100 µM (inactive) | > 100 µM (inactive) | > 100 µM (inactive) | > 100 µM (inactive) | > 100 µM (inactive) | > 100 µM (inactive) | > 100 µM (inactive) | > 100 µM (inactive) | > 100 µM (inactive) | > 100 µM (inactive) | > 100 µM (inactive) | > 100 µM (inactive) | > 100 µM (inactive) | > 100 µM (inactive) | > 100 µM (inactive) | > 100 µM (inactive)
4 | Oc1c(/N=N/c2ccccc2)c2ccccc2c2ccc3ccccc3c12 | 44.6 µM (inactive) | > 100 µM (inactive) | > 100 µM (inactive) | > 100 µM (inactive) | > 100 µM (inactive) | > 100 µM (inactive) | 39.6 µM (inactive) | 43.9 µM (inactive) | 45.6 µM (inactive) | 38.2 µM (inactive) | > 100 µM (inactive) | 66.1 µM (inactive) | 55.3 µM (inactive) | 17.9 µM (inactive) | > 100 µM (inactive) | > 100 µM (inactive) | > 100 µM (inactive) | > 100 µM (inactive) | 33.2 µM (inactive) | 50.5 µM (inactive)
5 | C/C(=C\c1csc(C)n1)[C@@H]1C[C@@H]2O[C@@H]2CCC[C@H](C)[C@H](O)[C@@H](C)C(=O)C(C)(C)[C@@H](O)CC(=O)O1 [EPOTHILONE A] | < 0.0001 µM (active) | < 0.0001 µM (active) | < 0.0001 µM (active) | < 0.0001 µM (active) | < 0.0001 µM (active) | 0.0167 µM (active) | < 0.0001 µM (active) | < 0.0001 µM (active) | < 0.0001 µM (active) | 0.0039 µM (active) | < 0.0001 µM (active) | < 0.0001 µM (active) | < 0.0001 µM (active) | < 0.0001 µM (active) | < 0.0001 µM (active) | < 0.0001 µM (active) | < 0.0001 µM (active) | < 0.0001 µM (active) | 0.124 µM (active) | < 0.0001 µM (active)
6 | C/C1=C\[C@H](C)C[C@H](C)OC(=O)C[C@H](c2ccc(O)cc2)NC(=O)[C@@H](Cc2c(Br)[nH]c3ccccc23)N(C)C(=O)[C@H](C)NC(=O)[C@@H](C)C1 [JASPAMIDE] | 0.128 µM (active) | 0.192 µM (active) | 0.139 µM (active) | 0.233 µM (active) | 0.152 µM (active) | 0.294 µM (active) | 0.243 µM (active) | 0.0209 µM (active) | 0.218 µM (active) | 0.237 µM (active) | 0.0499 µM (active) | 0.219 µM (active) | 0.199 µM (active) | 0.0578 µM (active) | 0.158 µM (active) | 0.0895 µM (active) | 0.0224 µM (active) | 0.361 µM (active) | 0.173 µM (active) | 0.259 µM (active)
